Measurements as given in patent US20250228239A1, “MOLECULES HAVING PESTICIDAL UTILITY, AND INTERMEDIATES, COMPOSITIONS, AND PROCESSES, RELATED THERETO” (priority 2024, published 2025).
Where two headings read alike, the source gives them in different places.

Columns and labels:
Assay type in all cases: in vivo
[1] = system: Beet Armyworm (Spodoptera exigua, LAPHEG); assay: Bioassays on Beet Armyworm (BAW), 128-well diet tray assay; conditions: Spodoptera exigua, read-out: BAW
Method in brief: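 One to five second-instar larvae per well on artificial diet surface-treated with 50 μg/cm^2 test molecule (applied in 90:10 acetone-water, dried), eight wells per compound. Trays held vented at 25° C., 14:10 light-dark for five to seven days; percent mortality averaged over the eight wells.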

[2] = system: Cabbage Looper (Trichoplusia ni, TRIPNI); assay: Bioassays on Cabbage Looper (CL), 128-well diet tray assay; conditions: Trichoplusia ni, read-out: CL
Method in brief: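 Each of eight wells receives artificial diet treated at 50 μg/cm^2 with the test molecule, then one to five second-instar larvae. Incubation runs five to seven days at 25° C with a 14:10 light-dark cycle under vented covers. Mortality is scored per well as a percentage and averaged.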

[3] = system: Yellow Fever Mosquito (Aedes aegypti, AEDSAE)
Method in brief: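 Rating-scale grades reflect larval mortality scored per well after 3 days at room temperature under non-evaporative lids. Larvae (~1 day old, hatched overnight in liver-powder water) were added to six daughter plates per compound, prepared from a 4000 ppm DMSO stock diluted in 90:10 water/acetone.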

[4] = Table ABC: Biological Results, species BAW
[5] = Table ABC: Biological Results, species CL
[6] = Table ABC: Biological Results, species YFM
[7] = Yellow Fever Mosquito, rating class

Row | SMILES | pest or weed control at 50 µg/cm2 [1, 4] [%] | pest or weed control at 50 µg/cm2 [2, 5] [%] | YFM [3, 6] | pest or weed control at 50 µg/cm2 ([1]; Beet Armyworm, rating class) [%] | pest or weed control at 50 µg/cm2 ([2]; Cabbage Looper, rating class) [%] | YFM [3, 7]
1 | CCCCC(=O)Nc1c(F)ccc(NC(=O)c2cc(NC(=O)[C@H]3[C@H](c4ccc(F)c(C(F)(F)F)c4)C3(Cl)Cl)ccc2Cl)c1F [F1372, 2-Chloro-5-((1R,3R)-2,2-dichloro-3-(4-fluoro-3-(trifluoromethyl)phenyl)cyclopropane-1-carboxamido)-N-(2,4-difluoro-3-pentanamidophenyl)benzamide] | 50 to 100 | 50 to 100 | A (80–100) | – | – | –
2 | CCCC(=O)Nc1c(F)ccc(NC(=O)c2cc(NC(=O)[C@H]3[C@H](c4ccc(F)c(C(F)(F)F)c4)C3(Cl)Cl)ccc2Cl)c1F [F1385, N-(3-Butyramido-2,4-difluorophenyl)-2-chloro-5-((1R,3R)-2,2-dichloro-3-(4-fluoro-3-(trifluoromethyl)phenyl)cyclopropane-1-carboxamido)benzamide] | 50 to 100 | 50 to 100 | A (80–100) | – | – | –
3 | Cc1c(N)ccc(NC(=O)c2cc(NC(=O)[C@H]3[C@H](c4ccc(F)c(C(F)(F)F)c4)C3(Cl)Cl)ccc2Cl)c1C [F1389, N-(4-Amino-2,3-dimethylphenyl)-2-chloro-5-((1R,3R)-2,2-dichloro-3-(4-fluoro-3-(trifluoromethyl)phenyl)cyclopropane-1-carboxamido)benzamide] | 50 to 100 | 50 to 100 | A (80–100) | – | – | –
4 | Nc1ccc(F)c(NC(=O)c2cc(NC(=O)[C@H]3[C@H](c4ccc(F)c(C(F)(F)F)c4)C3(Cl)Cl)ccc2Cl)c1F [F1391, N-(3-Amino-2,6-difluorophenyl)-2-chloro-5-((1R,3R)-2,2-dichloro-3-(4-fluoro-3-(trifluoromethyl)phenyl)cyclopropane-1-carboxamido)benzamide] | 50 to 100 | 50 to 100 | A (80–100) | – | – | –
5 | Cc1c(NC(=O)c2cc(NC(=O)[C@H]3[C@H](c4ccc(F)c(C(F)(F)F)c4)C3(Cl)Cl)ccc2Cl)ccc(NC(=O)C(F)(F)F)c1C [F1392, 2-Chloro-5-((1R,3R)-2,2-dichloro-3-(4-fluoro-3-(trifluoromethyl)phenyl)cyclopropane-1-carboxamido)-N-(2,3-dimethyl-4-(2,2,2-trifluoroacetamido)phenyl)benzamide] | – | – | – | 50 to 100 | 50 to 100 | A (80–100)
6 | O=C(Nc1c(F)ccc(NC(=O)C(F)F)c1F)c1cc(NC(=O)[C@H]2[C@H](c3ccc(F)c(C(F)(F)F)c3)C2(Cl)Cl)ccc1Cl [F1394, 2-Chloro-5-((1R,3R)-2,2-dichloro-3-(4-fluoro-3-(trifluoromethyl)phenyl)cyclopropane-1-carboxamido)-N-(3-(2,2-difluoroacetamido)-2,6-difluorophenyl)benzamide] | – | – | – | 50 to 100 | 50 to 100 | A (80–100)
7 | O=C(Nc1ccc(F)c(NC(=O)C(F)F)c1F)c1cc(NC(=O)[C@H]2[C@H](c3ccc(F)c(Br)c3)C2(Cl)Cl)ccc1Cl [F1410, 5-((1R,3R)-3-(3-Bromo-4-fluorophenyl)-2,2-dichlorocyclopropane-1-carboxamido)-2-chloro-N-(3-(2,2-difluoroacetamido)-2,4-difluorophenyl)benzamide] | – | – | – | 50 to 100 | 50 to 100 | A (80–100)
8 | O=C(Nc1ccc(F)c(NC(=O)C(F)(F)C(F)F)c1F)c1cc(NC(=O)[C@H]2[C@H](c3ccc(Cl)c(Cl)c3)C2(Cl)Cl)ccc1Cl [F1414, 2-Chloro-5-((1R,3R)-2,2-dichloro-3-(3,4-dichlorophenyl)cyclopropane-1-carboxamido)-N-(2,4-difluoro-3-(2,2,3,3-tetrafluoropropanamido)phenyl)benzamide] | – | – | – | 50 to 100 | 50 to 100 | A (80–100)
9 | N#CCC(=O)Nc1c(Cl)ccc(NC(=O)c2cc(NC(=O)[C@H]3[C@H](c4ccc(Cl)c(Cl)c4)C3(Cl)Cl)ccc2Cl)c1Cl [F1415, 2-Chloro-N-(2,4-dichloro-3-(2-cyanoacetamido)phenyl)-5-((1R,3R)-2,2-dichloro-3-(3,4-dichlorophenyl)cyclopropane-1-carboxamido)benzamide] | – | – | – | 50 to 100 | 50 to 100 | A (80–100)
10 | O=C(Nc1c(F)ccc(NC(=O)c2cc(NC(=O)[C@H]3[C@H](c4ccc(Cl)c(Cl)c4)C3(Cl)Cl)ccc2Cl)c1F)c1ccco1 [F1416, N-(3-(2-Chloro-5-((1R,3R)-2,2-dichloro-3-(3,4-dichlorophenyl)cyclopropane-1-carboxamido)benzamido)-2,6-difluorophenyl)furan-2-carboxamide] | – | – | – | 50 to 100 | 50 to 100 | A (80–100)
11 | O=C(CC1CC1)Nc1c(F)ccc(NC(=O)c2cc(NC(=O)[C@H]3[C@H](c4ccc(Cl)c(Cl)c4)C3(Cl)Cl)ccc2Cl)c1F [F1417, 2-Chloro-N-(3-(2-cyclopropylacetamido)-2,4-difluorophenyl)-5-((1R,3R)-2,2-dichloro-3-(3,4-dichlorophenyl)cyclopropane-1-carboxamido)benzamide] | – | – | – | 50 to 100 | 50 to 100 | A (80–100)
12 | O=C(CC(F)(F)F)Nc1c(F)ccc(NC(=O)c2cc(NC(=O)[C@H]3[C@H](c4ccc(Cl)c(Cl)c4)C3(Cl)Cl)ccc2Cl)c1F [F1418, 2-Chloro-5-((1R,3R)-2,2-dichloro-3-(3,4-dichlorophenyl)cyclopropane-1-carboxamido)-N-(2,4-difluoro-3-(3,3,3-trifluoropropanamido)phenyl)benzamide] | – | – | – | 50 to 100 | 50 to 100 | A (80–100)
13 | CCOCCC(=O)Nc1c(F)ccc(NC(=O)c2cc(NC(=O)[C@H]3[C@H](c4ccc(Cl)c(Cl)c4)C3(Cl)Cl)ccc2Cl)c1F [F1419, 2-Chloro-5-((1R,3R)-2,2-dichloro-3-(3,4-dichlorophenyl)cyclopropane-1-carboxamido)-N-(3-(3-ethoxypropanamido)-2,4-difluorophenyl)benzamide] | – | – | – | 50 to 100 | 50 to 100 | A (80–100)
14 | O=C(Nc1ccc(F)c(NC(=O)C(F)F)c1F)c1cc(NC(=O)[C@H]2[C@H](c3cc(Cl)c(Cl)c(Cl)c3)C2(Cl)Cl)cc(F)c1F [F1437, 5-((1R,3R)-2,2-Dichloro-3-(3,4,5-trichlorophenyl)cyclopropane-1-carboxamido)-N-(3-(2,2-difluoroacetamido)-2,4-difluorophenyl)-2,3-difluorobenzamide] | – | – | – | 50 to 100 | 50 to 100 | A (80–100)
15 | O=C(Nc1ccc(F)c(NC(=O)C(F)(F)F)c1F)c1cc(NC(=O)[C@H]2[C@H](c3cc(Cl)c(Cl)c(Cl)c3)C2(Cl)Cl)cc(F)c1F [F1438, 5-((1R,3R)-2,2-Dichloro-3-(3,4,5-trichlorophenyl)cyclopropane-1-carboxamido)-N-(2,4-difluoro-3-(2,2,2-trifluoroacetamido)phenyl)-2,3-difluorobenzamide] | – | – | – | 50 to 100 | 50 to 100 | A (80–100)
16 | CC(=O)Nc1c(F)ccc(NC(=O)c2cc(NC(=O)[C@H]3[C@H](c4cc(Cl)cc(Cl)c4)C3(Cl)Cl)cc(F)c2F)c1F [F1439, N-(3-Acetamido-2,4-difluorophenyl)-5-((1R,3R)-2,2-dichloro-3-(3,5-dichlorophenyl)cyclopropane-1-carboxamido)-2,3-difluorobenzamide] | – | – | – | 50 to 100 | 50 to 100 | A (80–100)
17 | O=C(Nc1ccc(F)c(NC(=O)C(F)F)c1F)c1cc(NC(=O)[C@H]2[C@H](c3cc(Cl)cc(Cl)c3)C2(Cl)Cl)cc(F)c1F [F1440, 5-((1R,3R)-2,2-Dichloro-3-(3,5-dichlorophenyl)cyclopropane-1-carboxamido)-N-(3-(2,2-difluoroacetamido)-2,4-difluorophenyl)-2,3-difluorobenzamide] | – | – | – | 50 to 100 | 50 to 100 | A (80–100)
18 | O=C(Nc1ccc(F)c(NC(=O)C(F)(F)F)c1F)c1cc(NC(=O)[C@H]2[C@H](c3cc(Cl)cc(Cl)c3)C2(Cl)Cl)cc(F)c1F [F1441, 5-((1R,3R)-2,2-Dichloro-3-(3,5-dichlorophenyl)cyclopropane-1-carboxamido)-N-(2,4-difluoro-3-(2,2,2-trifluoroacetamido)phenyl)-2,3-difluorobenzamide] | – | – | – | 50 to 100 | 50 to 100 | A (80–100)
19 | CC(=O)Nc1c(F)ccc(NC(=O)c2cc(NC(=O)[C@H]3[C@H](c4ccc(Cl)c(Cl)c4)C3(Cl)Cl)cc(F)c2F)c1F [F1442, N-(3-Acetamido-2,4-difluorophenyl)-5-((1R,3R)-2,2-dichloro-3-(3,4-dichlorophenyl)cyclopropane-1-carboxamido)-2,3-difluorobenzamide] | – | – | – | 50 to 100 | 50 to 100 | A (80–100)
20 | O=C(Nc1ccc(F)c(NC(=O)C(F)F)c1F)c1cc(NC(=O)[C@H]2[C@H](c3ccc(Cl)c(Cl)c3)C2(Cl)Cl)cc(F)c1F [F1443, 5-((1R,3R)-2,2-Dichloro-3-(3,4-dichlorophenyl)cyclopropane-1-carboxamido)-N-(3-(2,2-difluoroacetamido)-2,4-difluorophenyl)-2,3-difluorobenzamide] | – | – | – | 50 to 100 | 50 to 100 | A (80–100)
